Data published in patent US20220062240A1, “METHODS OF TREATING CANCER USING A CLK INHIBITOR” (BioSplice Therapeutics, Inc., priority 2018, published 2022).
Where two headings read alike, the source gives them in different places.

Key:
[1] = system: prostate cancer (5 cell lines); assay: CellTiter-Glo Viability Assay, prostate cancer; format: cell-based; conditions: Homo sapiens
Procedure: (§1) Fifty-one human cancer cell lines (breast cancer (8 cell lines), colorectal cancer (6 cell lines), haematopoietic & lymphoid tumors (13 cell lines), liver cancer (3 cell lines), lung cancer (4 cell lines), ovarian cancer (4 cell lines), pancreatic cancer (8 cell lines), and prostate cancer (5 cell lines)) were tested to determine the effects of representative compounds of Formulas (I)-(XII) on cellular proliferation, as evaluated using the CellTiter-Glo® Viability Assay.
(§2) For the Cell Viability Assays, cells were plated at 300-3,000 cells/well in 384-well plates in their respective media containing 1% Penicillin-Streptomycin and incubated for four days at 37° C. and 5% CO2. Twenty-eight replicates of DMSO-treated cells served as controls and cells treated with compound were performed in duplicate.
(§3) After incubation, 10 μL of CellTiter-Glo® (Promega) was added to each well allowed to incubate for approximately 12 minutes. This reagent results in cell lysis and generation of a luminescent signal proportional to the amount of ATP present. The amount of ATP is directly proportional to the number of metabolically active, viable cells present in culture. The CellTiter-Glo® Assay generates a luminescent signal, produced by the luciferase reaction (Promega.com).
(§4) After incubation, the luminescence signal was read using an EnVision™ Multilabel Plate Reader (Perkin Elmer). Dose-response curves were generated and EC50 concentration values were calculated using Dotmatics' Studies Software (Bishops Stortford, UK).

[2] = system: ovarian cancer (4 cell lines); assay: CellTiter-Glo Viability Assay, ovarian cancer; format: cell-based; conditions: Homo sapiens, inhibition of cancer cell proliferation
Procedure: as §1, §2, §3, §4

[3] = system: liver cancer (3 cell lines); assay: CellTiter-Glo Viability Assay, liver cancer; format: cell-based; conditions: Homo sapiens, inhibition of cancer cell proliferation
Procedure: as §1, §2, §3, §4

[4] = system: pancreatic cancer (8 cell lines); assay: CellTiter-Glo Viability Assay, pancreatic cancer; format: cell-based; conditions: Homo sapiens, inhibition of cancer cell proliferation
Procedure: as §1, §2, §3, §4

[5] = system: haematopoietic & lymphoid tumors (13 cell lines); assay: CellTiter-Glo Viability Assay, haematopoietic & lymphoid tumors; format: cell-based; conditions: Homo sapiens, inhibition of cancer cell proliferation
Procedure: as §1, §2, §3, §4

[6] = system: MDA-MB-231-Luc; assay: CellTiter-Glo Viability Assay, breast cancer; format: cell-based; conditions: Homo sapiens, 96 h; MDA-MB-231-Luc, breast cancer, four days; read-out: EC50
Procedure: as §1, §2, §3, §4

[7] = system: MCF7; assay: CellTiter-Glo Viability Assay, breast cancer; format: cell-based; conditions: Homo sapiens, 96 h; MCF7, breast cancer, four days; read-out: EC50
Procedure: as §1, §2, §3, §4

[8] = system: DU4475; assay: CellTiter-Glo Viability Assay, breast cancer; format: cell-based; conditions: Homo sapiens, DU-4475, 96 h; DU4475, breast cancer, four days; read-out: EC50
Procedure: as §1, §2, §3, §4

[9] = system: T47D; assay: CellTiter-Glo Viability Assay, breast cancer; format: cell-based; conditions: Homo sapiens, 96 h, breast cancer, four days, read-out: EC50
Procedure: as §1, §2, §3, §4

[10] = system: CAMA1; assay: CellTiter-Glo Viability Assay, breast cancer; format: cell-based; conditions: Homo sapiens, CAMA-1, 96 h; CAMA1, breast cancer, four days; read-out: EC50
Procedure: as §1, §2, §3, §4

[11] = system: BT-549; assay: CellTiter-Glo Viability Assay, breast cancer; format: cell-based; conditions: Homo sapiens, 96 h; BT-549, breast cancer, four days; read-out: EC50
Procedure: as §1, §2, §3, §4

[12] = system: HCC1599; assay: CellTiter-Glo Viability Assay, breast cancer; format: cell-based; conditions: Homo sapiens, 96 h; HCC1599, breast cancer, four days; read-out: EC50
Procedure: as §1, §2, §3, §4

[13] = system: lung cancer (4 cell lines); assay: CellTiter-Glo Viability Assay, lung cancer; format: cell-based; conditions: Homo sapiens, inhibition of cancer cell proliferation
Procedure: as §1, §2, §3, §4

[14] = biological target: CLK3 (Homo sapiens, UniProt P49761); assay: CLK3 kinase activity assay (Z-lyte, Ser/Thr 18 peptide)
Procedure: Each compound was dissolved in DMSO as a 10 mM stock and used to prepare compound source plates.
This is a non-radioactive assay using fluorescence resonance energy transfer (FRET) between coumarin and fluorescein to detect kinase activity which is represented as a ratio of coumarin emission/fluorescein emission.
All reactions were performed in duplicate. Unphosphorylated (“0% Control”) and phosphorylated (“100% control”) forms of Ser/Thr 18 served as control reactions. Additionally, an 11-point dose-response curve of Staurosporine (1 uM top) was run to serve as a positive compound control.
After incubation, Development Reagent A was diluted in Development Buffer then added to the reaction and allowed to further incubate for one hour at room temperature.
Dose-response curves were generated and inhibitory concentration (IC50) values were calculated using non-linear regression curve fit in the Dotmatics' Studies Software (Bishops Stortford, UK).
Compounds were acoustically transferred on 1536-well plates (Echo 550, LabCyte) instrument. Kinase, peptide, and ATP reagents from the Z′-LYTE Kinase Assay Kits (Thermo Fisher) were dispensed onto the compound plates using an EL406 liquid dispenser (BioTek). Plates were incubated in the dark at room temperature for 1 hr. Development reagent was added to the plates and then incubated in the dark at room temperature for 1 hr. Fluorescence signal form the plate was then read using an EnVision Multilabel Plate Reader (Perkin Elmer).

[15] = system: colorectal cancer (6 cell lines); assay: CellTiter-Glo Viability Assay, colorectal cancer; format: cell-based; conditions: Homo sapiens, inhibition of cancer cell proliferation
Procedure: as §1, §2, §3, §4

[16] = biological target: T1, CLK2 (Homo sapiens, UniProt P49760); assay: CLK2 kinase activity assay (Z-lyte, Ser/Thr 6 peptide); format: biochemical; conditions: recombinant CLK2 kinase, ATP 60 μM; read-out: EC50
T1 construct: purchased Thermo Fisher (Life Technologies), Z'-LYTE Kinase Assay Kits
Procedure: All reactions were performed in duplicate.

[17] = system: all 50 cell lines; assay: CellTiter-Glo Viability Assay, average across all cell lines; format: cell-based; conditions: Homo sapiens; across all 50 cell lines; read-out: average EC50 for inhibition of cancer cell proliferation
Procedure: as §1, §2, §3, §4

T1 sequence (P49760 whole entry): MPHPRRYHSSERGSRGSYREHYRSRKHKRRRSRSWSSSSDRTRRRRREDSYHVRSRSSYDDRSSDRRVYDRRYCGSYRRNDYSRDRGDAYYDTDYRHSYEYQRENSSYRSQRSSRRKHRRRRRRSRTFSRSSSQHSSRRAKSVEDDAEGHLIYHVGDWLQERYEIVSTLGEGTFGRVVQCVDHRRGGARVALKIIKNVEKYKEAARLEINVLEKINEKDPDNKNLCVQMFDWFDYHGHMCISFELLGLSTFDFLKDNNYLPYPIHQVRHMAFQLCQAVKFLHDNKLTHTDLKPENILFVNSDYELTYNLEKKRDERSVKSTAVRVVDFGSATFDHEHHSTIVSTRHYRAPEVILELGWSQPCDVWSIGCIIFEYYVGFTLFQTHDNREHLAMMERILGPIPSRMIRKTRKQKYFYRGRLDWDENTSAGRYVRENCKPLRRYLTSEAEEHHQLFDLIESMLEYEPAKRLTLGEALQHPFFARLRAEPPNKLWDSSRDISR
CLK3, sequence (P49761 whole entry): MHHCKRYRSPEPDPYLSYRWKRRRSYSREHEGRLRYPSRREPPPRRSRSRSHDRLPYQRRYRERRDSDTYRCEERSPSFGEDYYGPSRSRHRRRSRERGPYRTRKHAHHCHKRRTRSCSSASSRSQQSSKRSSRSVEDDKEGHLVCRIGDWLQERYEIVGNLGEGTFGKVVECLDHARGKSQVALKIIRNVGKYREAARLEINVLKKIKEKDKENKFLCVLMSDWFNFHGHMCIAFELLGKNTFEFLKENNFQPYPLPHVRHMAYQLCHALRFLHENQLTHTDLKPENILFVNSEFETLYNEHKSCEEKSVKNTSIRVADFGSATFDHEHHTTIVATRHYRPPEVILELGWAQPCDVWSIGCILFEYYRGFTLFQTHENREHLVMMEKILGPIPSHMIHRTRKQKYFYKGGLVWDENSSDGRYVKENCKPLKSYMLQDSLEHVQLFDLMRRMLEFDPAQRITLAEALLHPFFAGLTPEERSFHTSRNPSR

Compound: CN1CCN(c2cc(C(=O)Nc3cc4cc(-c5nnc(N(C)C)s5)ccc4cn3)ccn2)CC1 [Compound 84]
- EC50 ([1]; DU-145, read-out: Prostate cancer EC50 Du-145): 1040 nM
- EC50 ([1]; PC-3, PC3 cell line, inhibition of cancer cell proliferation, read-out: Prostate cancer EC50 PC3): 848 nM
- EC50 ([1]; 22Rv1 cell line, inhibition of cancer cell proliferation, read-out: Prostate cancer EC50 22Rv1): 847 nM
- EC50 ([1]; LNCap clone FGC cell line, inhibition of cancer cell proliferation, read-out: Prostate cancer EC50 LNCap clone FGC): 1540 nM
- EC50 ([1]; VCaP (Sigma) cell line, inhibition of cancer cell proliferation, read-out: Prostate cancer EC50 VCaP (Sigma)): 3500 nM
- EC50 ([2]; PA-1, PA1 cell line, read-out: Ovarian cancer, EC50 (μM) PA1): 0.643 µM
- EC50 ([2]; TOV112D, TOV-112D cell line, read-out: Ovarian cancer, EC50 (μM) TOV-112D): 0.61 µM
- EC50 ([2]; OV-90 cell line, read-out: Ovarian cancer, EC50 (μM) OV-90): 1.64 µM
- EC50 ([2]; OVCAR-3 cell line, read-out: Ovarian cancer, EC50 (μM) OVCAR-3): 0.446 µM
- EC50 ([3]; SNU-398, SNU398 cell line, read-out: Liver cancer, EC50 SNU398): 234 nM
- EC50 ([3]; HEPG2 cell line, read-out: Liver cancer, EC50 HEPG2): 734 nM
- EC50 ([3]; PLC/PRF/5 cell line, read-out: Liver cancer, EC50 PLC/PRF/5): 1930 nM
- EC50 ([4]; BXPC-3, BxPC3 cell line, read-out: Pancreatic cancer, EC50 BxPC3): 2070 nM
- EC50 ([4]; CAPAN-1, Capan1 cell line, read-out: Pancreatic cancer, EC50 Capan1): 1120 nM
- EC50 ([4]; Capan-2, Capan2 cell line, read-out: Pancreatic cancer, EC50 Capan2): 1290 nM
- EC50 ([4]; MIA PaCa-2 cell line, read-out: Pancreatic cancer, EC50 MIA PaCa-2): 461 nM
- EC50 ([4]; PANC 05.04 cell line, read-out: Pancreatic cancer, EC50 PANC 05.04): 1190 nM
- EC50 ([4]; PANC-1 cell line, read-out: Pancreatic cancer, EC50 PANC-1): 1830 nM
- EC50 ([4]; UPAFII cell line, read-out: Pancreatic cancer, EC50 UPAFII): 593 nM
- EC50 ([5]; DND41, DND-41 cell line, read-out: Haematopoietic & Lymphoid tumors, EC50 (μM) DND-41): 0.914 µM
- EC50 ([5]; MV4-11, MV-4-11 cell line, read-out: Haematopoietic & Lymphoid tumors, EC50 (μM) MV-4-11): 0.316 µM
- EC50 ([5]; Rec1, REC-1 cell line, read-out: Haematopoietic & Lymphoid tumors, EC50 (μM) REC-1): 0.23 µM
- EC50 ([5]; SU-DHL-4, SUDHL4 cell line, read-out: Haematopoietic & Lymphoid tumors, EC50 (μM) SUDHL4): 0.972 µM
- EC50 ([5]; HL-60 cell line, read-out: Haematopoietic & Lymphoid tumors, EC50 (μM) HL-60): 2.59 µM
- EC50 ([5]; JM1 cell line, read-out: Haematopoietic & Lymphoid tumors, EC50 (μM) JM1): 0.216 µM
- EC50 ([5]; JURKAT, Clone E6-1 cell line, read-out: Haematopoietic & Lymphoid tumors, EC50 (μM) JURKAT, Clone E6-1): 1.62 µM
- EC50 ([5]; JeKo-1 cell line, read-out: Haematopoietic & Lymphoid tumors, EC50 (μM) JeKo-1): 0.319 µM
- EC50 ([5]; KASUMI-1 cell line, read-out: Haematopoietic & Lymphoid tumors, EC50 (μM) KASUMI-1): 0.842 µM
- EC50 ([5]; Loucy cell line, read-out: Haematopoietic & Lymphoid tumors, EC50 (μM) Loucy): 0.78 µM
- EC50 ([5]; MOLT-4 cell line, read-out: Haematopoietic & Lymphoid tumors, EC50 (μM) MOLT-4): 0.965 µM
- EC50 ([5]; TF-1 cell line, read-out: Haematopoietic & Lymphoid tumors, EC50 (μM) TF-1): 1.31 µM
- EC50 ([5]; TOLEDO cell line, read-out: Haematopoietic & Lymphoid tumors, EC50 (μM) TOLEDO): 0.3 µM
- EC50 [6]: 1100 nM
- EC50 [7]: 2560 nM
- EC50 [8]: 640 nM
- EC50 [9]: 1430 nM
- EC50 [10]: 1220 nM
- EC50 [11]: 1240 nM
- EC50 [12]: 1130 nM
- EC50 ([13]; A-427, A427 cell line, read-out: Lung cancer, EC50 (μM) A427): 0.856 µM
- EC50 ([13]; HCC78, HCC-78 cell line, read-out: Lung cancer, EC50 (μM) HCC-78): 1.47 µM
- EC50 ([13]; NCI-H460 cell line, read-out: Lung cancer, EC50 (μM) NCI-H460): 1.26 µM
- EC50 ([13]; NCI-H522 cell line, read-out: Lung cancer, EC50 (μM) NCI-H522): 0.553 µM
- EC50 [14]: 27.2 nM
- EC50 ([15]; HCT-116, HCT116 cell line, read-out: Colorectal cancer, EC50 (μM) HCT116): 0.396 µM
- EC50 ([15]; HT-29, HT29 cell line, read-out: Colorectal cancer, EC50 (μM) HT29): 1.13 µM
- EC50 ([15]; SW-620, SW620 cell line, read-out: Colorectal cancer, EC50 (μM) SW620): 0.26 µM
- EC50 ([15]; DLD-1 cell line, read-out: Colorectal cancer, EC50 (μM) DLD-1): 0.658 µM
- EC50 ([15]; SW48 cell line, read-out: Colorectal cancer, EC50 (μM) SW48): 0.185 µM
- EC50 ([15]; SW480 cell line, read-out: Colorectal cancer, EC50 (μM) SW480): 0.551 µM
- EC50 [16]: 2.9 nM
- EC50 [17]: 1040 nM
